Experimental data published in patent publication US20260262643A1, “HERBICIDAL BENZOXAZINES” (FMC CORPORATION, priority 2022, published 2026).
Where two headings read alike, the source gives them in different places.

Columns and labels:
corn = assay: Test A preemergence; format: in vivo, Zea mays; conditions: Zea mays, pre-emergence, 240 h; for Corn plant response rating (crop injury, 0 = no effect, 100 = complete kill) at 125 g/ha: 125 g ai/ha, visual injury after 10 days, 0 to 100 scale, 0 is no effect, 100 is complete control; for Corn plant response rating (crop injury, 0 = no effect, 100 = complete kill) at 500 g/ha: 500 g ai/ha, 0 to 100 scale (0 no effect, 100 complete control), 10 days
Outline: (§1)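 Weeds and crops in loam–sand blend were sprayed preemergence onto soil or postemergence at 2–10 cm (one- to two-leaf stage). Test chemicals were in a non-phytotoxic solvent with surfactant. After 10 days in the greenhouse, injury was rated visually against untreated controls on a 0 (no effect) to 100 (complete control) scale.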

pigweed, palmer = assay: Test A preemergence; format: in vivo, Amaranthus palmeri; conditions: Amaranthus palmeri, pre-emergence, 240 h, read-out: Plant response rating, Pigweed, Palmer; for pest or weed control at 125 g/ha: 125 g ai/ha, visual injury after 10 days, 0 to 100 scale, 0 is no effect, 100 is complete control; for pest or weed control at 500 g/ha: 500 g ai/ha, 0 to 100 scale (0 no effect, 100 complete control), 10 days
Outline: as §1

ragweed [1] = assay: Test A preemergence; format: in vivo, Ambrosia artemisiifolia; conditions: Ambrosia artemisiifolia, pre-emergence, 240 h, read-out: Plant response rating, Ragweed; for pest or weed control at 125 g/ha: 125 g ai/ha, visual injury after 10 days, 0 to 100 scale, 0 is no effect, 100 is complete control; for pest or weed control at 500 g/ha: 500 g ai/ha, 0 to 100 scale (0 no effect, 100 complete control), 10 days
Outline: as §1

soybean [2] = assay: Test A preemergence; format: in vivo, Glycine max; conditions: Glycine max, pre-emergence, 240 h, read-out: Plant response rating, Soybean; for plant injury at 125 g/ha: 125 g ai/ha, visual injury after 10 days, 0 to 100 scale, 0 is no effect, 100 is complete control; for plant injury at 500 g/ha: 500 g ai/ha, 0 to 100 scale (0 no effect, 100 complete control), 10 days
Outline: as §1

wheat [3] = assay: Test A preemergence; format: in vivo, Triticum aestivum; conditions: Triticum aestivum, pre-emergence, 240 h, read-out: Plant response rating, Wheat; for plant injury at 125 g/ha: 125 g ai/ha, visual injury after 10 days, 0 to 100 scale, 0 is no effect, 100 is complete control; for plant injury at 500 g/ha: 500 g ai/ha, 0 to 100 scale (0 no effect, 100 complete control), 10 days
Outline: as §1

foxtail, giant = assay: Test A postemergence; format: in vivo, Setaria faberi; conditions: Setaria faberi, post-emergence, 240 h; for pest or weed control at 125 g/ha: 125 g ai/ha; for pest or weed control at 500 g/ha: 500 g ai/ha
Outline: as §1

goosegrass = assay: Test A postemergence; format: in vivo, Eleusine indica; conditions: Eleusine indica, post-emergence, 240 h; for pest or weed control at 125 g/ha: 125 g ai/ha; for pest or weed control at 500 g/ha: 500 g ai/ha
Outline: as §1

oat, wild = assay: Test A postemergence; format: in vivo, Avena fatua; conditions: Avena fatua, post-emergence, 240 h; for pest or weed control at 125 g/ha: 125 g ai/ha; for pest or weed control at 500 g/ha: 500 g ai/ha
Outline: as §1

ragweed [4] = assay: Test A postemergence; format: in vivo, Ambrosia artemisiifolia; conditions: Ambrosia artemisiifolia, post-emergence, 240 h; for pest or weed control at 125 g/ha: 125 g ai/ha; for pest or weed control at 500 g/ha: 500 g ai/ha
Outline: as §1

ryegrass, Italian = assay: Test A postemergence; format: in vivo, Lolium multiflorum; conditions: Lolium multiflorum, post-emergence, 240 h; for pest or weed control at 125 g/ha: 125 g ai/ha; for pest or weed control at 500 g/ha: 500 g ai/ha
Outline: as §1

soybean [5] = assay: Test A postemergence; format: in vivo, Glycine max; conditions: Glycine max, post-emergence, 240 h; for plant injury at 125 g/ha: 125 g ai/ha; for plant injury at 500 g/ha: 500 g ai/ha
Outline: as §1

wheat [6] = assay: Test A postemergence; format: in vivo, Triticum aestivum; conditions: Triticum aestivum, post-emergence, 240 h; for plant injury at 125 g/ha: 125 g ai/ha; for plant injury at 500 g/ha: 500 g ai/ha
Outline: as §1

galium = assay: Test A postemergence; format: in vivo, Galium aparine; conditions: Galium, post-emergence, 240 h; for pest or weed control at 125 g/ha: 125 g ai/ha; for pest or weed control at 500 g/ha: 500 g ai/ha
Outline: as §1

sedge, umbrella = assay: Test B flooded paddy test; format: in vivo, Cyperus difformis; conditions: Cyperus difformis, 312 h; 250 g ai/ha, Flood, 13 days, 0 to 100 scale (0 no effect, 100 complete control); read-out: Plant response rating, Sedge, Umbrella
Outline: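 Two-leaf plants, 3 cm flood, in-water application, 13-day greenhouse hold, visual 0–100 rating vs untreated checks.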

[7] = postemergence, 10 days, visual injury, 0 to 100 scale (0 no effect, 100 complete control), read-out: Plant response rating, Foxtail, Giant
[8] = postemergence, 10 days, visual injury, 0 to 100 scale (0 no effect, 100 complete control), read-out: Plant response rating, Goosegrass
[9] = postemergence, 10 days, visual injury, 0 to 100 scale (0 no effect, 100 complete control), read-out: Plant response rating, Oat, Wild
[10] = postemergence, 10 days, visual injury, 0 to 100 scale (0 no effect, 100 complete control), read-out: Plant response rating, Ragweed
[11] = postemergence, 10 days, visual injury, 0 to 100 scale (0 no effect, 100 complete control), read-out: Plant response rating, Ryegrass, Italian
[12] = postemergence, 10 days, visual injury, 0 to 100 scale (0 no effect, 100 complete control), read-out: Plant response rating, Soybean
[13] = postemergence, 10 days, visual injury, 0 to 100 scale (0 no effect, 100 complete control), read-out: Plant response rating, Wheat
[14] = postemergence, 10 days, visual injury, 0 to 100 scale (0 no effect, 100 complete control), read-out: Plant response rating, Galium

Cc1cccc2c1O[C@@H](C)CN2C(=O)c1cccc(-n2cnc(Br)n2)c1 [Compound 61, [3-(3-Bromo-1H-1,2,4-triazol-1-yl)phenyl][(2S)-2,3-dihydro-2,8-dimethyl-4H-1,4-benzoxazin-4-yl]methanone]
Corn plant response rating (crop injury, 0 = no effect, 100 = complete kill) at 125 g/ha (corn): 0%
Corn plant response rating (crop injury, 0 = no effect, 100 = complete kill) at 500 g/ha (corn): 0%
pest or weed control at 125 g/ha (pigweed, palmer): 60%
pest or weed control at 500 g/ha (pigweed, palmer): 90%
pest or weed control at 125 g/ha (ragweed [1]): 0%
pest or weed control at 500 g/ha (ragweed [1]): 40%
plant injury at 125 g/ha (soybean [2]): 0%
plant injury at 500 g/ha (soybean [2]): 30%
plant injury at 125 g/ha (wheat [3]): 0%
plant injury at 500 g/ha (wheat [3]): 20%
pest or weed control at 125 g/ha (foxtail, giant; [7]): 60%
pest or weed control at 500 g/ha (foxtail, giant; Postemergence, 0 to 100 scale, read-out: Plant response rating, Foxtail, Giant): 80%
pest or weed control at 125 g/ha (goosegrass; [8]): 10%
pest or weed control at 500 g/ha (goosegrass; Postemergence, 0 to 100 scale, read-out: Plant response rating, Goosegrass): 50%
pest or weed control at 125 g/ha (oat, wild; [9]): 10%
pest or weed control at 500 g/ha (oat, wild; Postemergence, 0 to 100 scale, read-out: Plant response rating, Oat, Wild): 20%
pest or weed control at 125 g/ha (ragweed [4]; [10]): 30%
pest or weed control at 500 g/ha (ragweed [4]; Postemergence, 0 to 100 scale, read-out: Plant response rating, Ragweed): 40%
pest or weed control at 125 g/ha (ryegrass, Italian; [11]): 40%
pest or weed control at 500 g/ha (ryegrass, Italian; Postemergence, 0 to 100 scale, read-out: Plant response rating, Ryegrass, Italian): 40%
plant injury at 125 g/ha (soybean [5]; [12]): 100%
plant injury at 500 g/ha (soybean [5]; Postemergence, 0 to 100 scale, read-out: Plant response rating, Soybean): 100%
plant injury at 125 g/ha (wheat [6]; [13]): 10%
plant injury at 500 g/ha (wheat [6]; Postemergence, 0 to 100 scale, read-out: Plant response rating, Wheat): 20%
pest or weed control at 125 g/ha (galium; [14]): 70%
pest or weed control at 500 g/ha (galium; Postemergence, 0 to 100 scale, read-out: Plant response rating, Galium): 100%
pest or weed control at 250 g/ha (sedge, umbrella): 45%

C[C@H]1CN(C(=O)c2cccc(-n3cnc(C4CCC4)n3)c2)c2cccc(Cl)c2O1 [Compound 93, [(2S)-8-Chloro-2,3-dihydro-2-methyl-4H-1,4-benzoxazin-4-yl][3-(3-cyclobutyl-1H-1,2,4-triazol-1-yl)phenyl]methanone]
Corn plant response rating (crop injury, 0 = no effect, 100 = complete kill) at 125 g/ha (corn): 10%
Corn plant response rating (crop injury, 0 = no effect, 100 = complete kill) at 500 g/ha (corn): 10%
pest or weed control at 125 g/ha (pigweed, palmer): 90%
pest or weed control at 500 g/ha (pigweed, palmer): 100%
pest or weed control at 125 g/ha (ragweed [1]): 0%
pest or weed control at 500 g/ha (ragweed [1]): 0%
plant injury at 125 g/ha (soybean [2]): 30%
plant injury at 500 g/ha (soybean [2]): 30%
plant injury at 125 g/ha (wheat [3]): 0%
plant injury at 500 g/ha (wheat [3]): 10%
pest or weed control at 125 g/ha (foxtail, giant; postemergence, 10 days, 0 to 100 scale (0 no effect, 100 complete control), read-out: Foxtail, Giant plant response rating): 60%
pest or weed control at 500 g/ha (foxtail, giant; [7]): 90%
pest or weed control at 125 g/ha (goosegrass; postemergence, 10 days, 0 to 100 scale (0 no effect, 100 complete control), read-out: Goosegrass plant response rating): 20%
pest or weed control at 500 g/ha (goosegrass; [8]): 70%
pest or weed control at 125 g/ha (oat, wild; postemergence, 10 days, 0 to 100 scale (0 no effect, 100 complete control), read-out: Oat, Wild plant response rating): 20%
pest or weed control at 500 g/ha (oat, wild; [9]): 70%
pest or weed control at 125 g/ha (ragweed [4]; postemergence, 10 days, 0 to 100 scale (0 no effect, 100 complete control), read-out: Ragweed plant response rating): 50%
pest or weed control at 500 g/ha (ragweed [4]; [10]): 50%
pest or weed control at 125 g/ha (ryegrass, Italian; postemergence, 10 days, 0 to 100 scale (0 no effect, 100 complete control), read-out: Ryegrass, Italian plant response rating): 30%
pest or weed control at 500 g/ha (ryegrass, Italian; [11]): 90%
plant injury at 125 g/ha (soybean [5]; postemergence, 10 days, 0 to 100 scale (0 no effect, 100 complete control), read-out: Soybean plant response rating): 100%
plant injury at 500 g/ha (soybean [5]; [12]): 100%
plant injury at 125 g/ha (wheat [6]; postemergence, 10 days, 0 to 100 scale (0 no effect, 100 complete control), read-out: Wheat plant response rating): 20%
plant injury at 500 g/ha (wheat [6]; [13]): 20%
pest or weed control at 125 g/ha (galium; postemergence, 10 days, 0 to 100 scale (0 no effect, 100 complete control), read-out: Galium plant response rating): 100%
pest or weed control at 500 g/ha (galium; [14]): 100%
pest or weed control at 250 g/ha (sedge, umbrella): 0%
